Series [1] in a line: in vivo. The conditions noted are these: rat, po.
The nature of series [2]: in vivo. Particulars: rat.

Molecules are shown by their SMILES.

From ChEMBL document CHEMBL1148501, “Synthesis of pyrazoles and isoxazoles as potent alpha(v)beta3 receptor antagonists” (Bioorg Med Chem Lett, 2006) come the findings set out here.

In general, bioavailability refers to the share of a dose that reaches the circulation, judged against a reference dose that is usually intravenous. Low readings indicate poor availability, high ones good availability. Broadly, the half-life is how long it takes for the measured level to halve.

In series [1], `Cn1nc(CC(CC(=O)O)c2ccc3c(c2)OCO3)cc1OCCc1ccc2c(n1)NCCC2` (configuration not stated) returned a bioavailability of 95%. The molecule further had a half-life in series [2] of 4.9 h.
